According to patent US20230125429A1 (priority 2017, published 2023):
Entries after “also recorded” stand apart in the source; their conditions may differ.

Experiments:
[1] = Lethal dose and maximum tolerable dose in mice; assay type: in vivo
Protocol: Thus, a second preliminary experiment was carried out in tumor-bearing nude mice to determine whether an antitumor effect could be achieved within the non-toxic range. […] Thus, the 25 mg/kg once every other day regimen was selected for the preclinical experiment. The volumes of individual tumors were assessed by bioluminescent imaging.
Thus, we first determined the lethal dose and the maximum tolerable dose (MTD) of Triptonide for mice based on a once every other day regimen. […] It is noted that once every other day might not be the optimal scheme. Nonetheless, we decided to begin with this scheme and the 25% value of the MTD, i.e. 25 mg/kg.

[2] = tested on: HepG2-GFP orthotopic xenograft tumor
[3] = tested on: HepG2-based orthotopic xenograft tumor; parameters: species or system nude mice; conditions: mouse, in vivo
HepG2 cells = assay: Blocking the AC-cAMP-PKA pathway, growth of HepG2 cells; assay type: cell-based, human
[4] = tested on: mimosine treated HepG2 cells; assay: Cell cycle analysis by flow cytometry (PI staining); assay type: cell-based, human; conditions: for G2/M cells: 1 µM
[5] = cited from earlier work
[6] = tested on: mimosine-treated HepG2 cells; assay: One-hour treatment of mimosine-treated HepG2 cells, live cell imaging; assay type: cell-based, human
PKA = assay: Measurement of PKA activity in HepG2 cells; assay type: cell-based, human
wild-type keratinocytes [7] = assay: Growth of wild-type primary keratinocytes, short-term treatment; assay type: cell-based, mouse
GES-1 = assay: Growth inhibitory effect, one hour exposure (IncuCyte Zoom); assay type: cell-based, human; conditions: GES-1, immortalized gastric epithelium
wild-type keratinocytes [8] = assay: Growth of wild-type primary keratinocytes, continuous exposure; assay type: cell-based, mouse
Protocol: For the neonatal mouse keratinocyte culture, the dorsal skins of neonatal wild type or Par2 knockout mice were harvested from wild type or Par2 knockout mice, respectively. The skins were incubated overnight at 4° C. in a 0.25% solution of trypsin (Life Technologies, USA) in phosphate-buffered saline (PBS) without calcium and magnesium. The epidermis was then separated from the adjoining dermis, and the dispersed epidermal cells were collected in suspension Eagle’s minimal essential medium (SMEM) (Life Technologies, USA) supplemented with glutamine and 8% calcium free fetal calf serum (FCS) (Life Technologies, USA). The cells were plated onto individual wells of 48 well plates (Corning, USA), which were pre-coated with collagen (Life Technologies, USA), at a density of 70,000 cells/well. The cell cultures were kept for 12 hours at 34° C. in a humidified incubator containing 8% CO2. Low calcium (0.05 mM) S-MEM, containing 8% FCS was then added to initiate the culture. The culture medium was changed every 2 days.
For primary hepatocytes, the seeded cells were monitored for up to 48 hours either without any treatment (as a control) or with various types of treatments. For primary keratinocytes, cells in 48-well plates were monitored either without any treatment or with various types of treatment for up to 96 hours. For HepG2, cells 96-well plates were monitored either without any treatment or with various types of treatments for up to 48 hours. The IncuCyte Zoom was set to take a set of images at fixed locations (4 per well for 96-well plates and 16 per well for 48-well plates and 12-well plates) every three hours.
To address this question, we took a genetic approach.

[9] = rodents, intraperitoneal injection

Structure (SMILES): CC(C)[C@]12O[C@H]1[C@@H]1O[C@@]13[C@@]1(C)CCC4=C(COC4=O)[C@@H]1C[C@@H]1O[C@@]13C2=O [Triptonide]
- mortality ([1]; 100 mg/kg three times a day, four-hour interval, within four days): all animals were dead
- death ([1]; 200 mg/kg oral, once every other day, within four days): 100%
- adverse effects ([1]; up to 100 mg/kg oral, once every other day): did not cause any significant adverse effects; also recorded: did not result in any significant adverse effects
- average body weight of the animals ([2]; 25 mg/kg by gavage every other day): did not have any significant impact
- tumor specific signals during follow-up ([2]; remaining mice, another four months without further treatments): No tumor specific signals were ever detected again
- autopsy for tumors ([2]; six of the treated mice): did not reveal any signs of tumors
- intensities of the tumor specific signal / tumor mass [3]: very effective in reducing the tumor mass; also recorded: reduced the tumor specific signal to the background level
- effect on growth of HepG2 cells (HepG2 cells): significant growth inhibitory effect
- G2/M cells ([4]; 11 hours after mimosine release): 82%
- G2/M cells ([4]; 24 hours after mimosine release): 80%
- G2/M cells ([4]; 37 hours after mimosine release): 78%
- sub-G1 (<2N, apoptotic) population ([4]; 10 µM, by 24 hours): significant peaks of the sub-G1
- change of plasma concentration on redistribution ([5]; rodent, following an oral dosing): several dozen folds of decrease
- T1/2 alpha [5, 9]: 0.17 to 0.195 h
- T1/2 beta [5, 9]: 4.95 to 6.49 h
- effect of treatment applied at hour 0 after release [6]: became static, but no significant accumulation of mitotic catastrophe cells
- sensitivity to mitotic catastrophe-inducing effect by time of treatment [6]: only sensitive when the treatment was applied at 2 hours
- levels of PKA activities, acute (PKA; 1 µM, serum free, first 30 minutes after treatment): two-wave elevation
- level of PKA activity around G2/M transition (PKA; one-hour treatment in regular medium (Trypsin 50 nM, Triptonide 1 µM), hour 9 and 10 after mimosine): remained largely unchanged
- IC50 (wild-type keratinocytes [7]): 1.29 µM
- effect on growth of wild-type keratinocytes (wild-type keratinocytes [7]): effective in inhibiting the growth; also recorded: complete growth inhibition; also recorded: significant growth suppressive effect
- IC50 (GES-1): 16.7 µM
- growth inhibitory effect, wild-type versus Par2 knockout (wild-type keratinocytes [8]; continuous exposure): more potent growth inhibitory effect on the Par2 wild-type PMHs than their Par2 knockout counterparts
- toxicity to Par2-expressing primary mouse keratinocytes (wild-type keratinocytes [8]; long-term exposure, as low as 50 nM): quite toxic
